The source made the active and inactive calls. No cut-off for these calls is given here.
Tests used:
Pancreatic alpha-amylase = biological target: T1, Pancreatic alpha-amylase (Sus scrofa, UniProt P00690); assay: Inhibition of porcine pancreatic alpha-amylase using starch as substrate incubated for 10 mins by absorbance based assay
T1 sequence (P00690 whole entry): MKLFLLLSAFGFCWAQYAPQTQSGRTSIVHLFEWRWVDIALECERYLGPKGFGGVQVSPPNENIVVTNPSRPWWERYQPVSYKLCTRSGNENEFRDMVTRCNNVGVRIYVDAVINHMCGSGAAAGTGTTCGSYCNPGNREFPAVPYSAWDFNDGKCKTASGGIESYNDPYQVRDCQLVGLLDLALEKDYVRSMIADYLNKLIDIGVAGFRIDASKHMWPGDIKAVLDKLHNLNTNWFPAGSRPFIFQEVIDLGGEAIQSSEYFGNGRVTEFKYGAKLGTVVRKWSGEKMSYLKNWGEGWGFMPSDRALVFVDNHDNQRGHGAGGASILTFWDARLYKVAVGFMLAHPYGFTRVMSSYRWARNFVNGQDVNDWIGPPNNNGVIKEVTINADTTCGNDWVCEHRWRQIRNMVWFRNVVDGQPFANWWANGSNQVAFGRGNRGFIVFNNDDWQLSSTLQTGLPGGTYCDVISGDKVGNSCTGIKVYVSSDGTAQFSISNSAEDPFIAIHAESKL

MCF-10A = assay: Cytotoxicity against human MCF-10A assessed as reduction in cell viability upto 10 uM incubated for 48 hrs by MTT assay; type: toxicity, cell-based
[1] = biological target: Alpha amylase (Homo sapiens) (UniProt P0DUB6); assay: Binding affinity to alpha-amylase (unknown origin) assessed as increase in intensity of absorption peak at 285 nm by […]
[2] = biological target: Alpha amylase (Homo sapiens) (UniProt P0DUB6); assay: Binding affinity to alpha-amylase (unknown origin) assessed as equilibrium binding constant at a temperature of 283.15 K by fluorescence quenching analysis
A549 [3] = assay: Antiproliferative activity against human A549 cells assessed as inhibition of cell growth incubated for 48 hrs by MTT assay; type: functional, cell-based; settings: A549, 48 h
[4] = biological target: Alpha amylase (Homo sapiens) (UniProt P0DUB6); assay: Binding affinity to alpha-amylase (unknown origin) assessed as quenching constant at a temperature of 310.15 K by fluorescence quenching analysis
[5] = biological target: Alpha amylase (Homo sapiens) (UniProt P0DUB6); assay: Binding affinity to alpha-amylase (unknown origin) assessed as gibb's free energy change ar a temperature of 310.15 K by fluorescence quenching analysis
[6] = biological target: Alpha amylase (Homo sapiens) (UniProt P0DUB6); assay: Binding affinity to alpha-amylase (unknown origin) assessed as Stem-Volmer quenching constant at a temperature of 288.15 K by fluorescence quenching analysis
[7] = biological target: Alpha amylase (Homo sapiens) (UniProt P0DUB6); assay: Binding affinity to alpha-amylase (unknown origin) assessed as assessed as non-uniform change in fluorescence intensity of tryptophan residue by Synchronous fluorescence analysis
MDA-MB-231 = assay: Antiproliferative activity against human MDA-MB-231 cells assessed as inhibition of cell growth incubated for 48 hrs by MTT assay; type: functional, cell-based; settings: MDA-MB-231, 48 h
[8] = biological target: Alpha amylase (Homo sapiens) (UniProt P0DUB6); assay: Binding affinity to alpha-amylase (unknown origin) assessed as quenching constant at a temperature of 288.15 K by fluorescence quenching analysis
[9] = biological target: Alpha amylase (Homo sapiens) (UniProt P0DUB6); assay: Binding affinity to alpha-amylase (unknown origin) assessed as change in entropy by fluorescence quenching analysis
[10] = biological target: Alpha amylase (Homo sapiens) (UniProt P0DUB6); assay: Binding affinity to alpha-amylase (unknown origin) assessed as equilibrium binding constant at a temperature of 278.15 K by fluorescence quenching analysis
[11] = biological target: Alpha amylase (Homo sapiens) (UniProt P0DUB6); assay: Binding affinity to alpha-amylase (unknown origin) assessed as equilibrium binding constant at a temperature of 288.15 K by fluorescence quenching analysis
[12] = biological target: Alpha amylase (Homo sapiens) (UniProt P0DUB6); assay: Binding affinity to alpha-amylase (unknown origin) assessed as Stem-Volmer quenching constant at a temperature of 283.15 K by fluorescence quenching analysis
HCT-116 = assay: Antiproliferative activity against human HCT-116 cells assessed as inhibition of cell growth incubated for 48 hrs by MTT assay; type: functional, cell-based; settings: HCT-116, 48 h
Alpha amylase = biological target: T2, Alpha amylase (Homo sapiens, UniProt P0DUB6); assay: Inhibition of alpha-amylase (unknown origin) using starch as substrate preincubated with substrate for 15 mins followed by compound addition and measured after 15 mins by UV-VIS spectrophotometric analysis
T2 sequence (P0DUB6 whole entry): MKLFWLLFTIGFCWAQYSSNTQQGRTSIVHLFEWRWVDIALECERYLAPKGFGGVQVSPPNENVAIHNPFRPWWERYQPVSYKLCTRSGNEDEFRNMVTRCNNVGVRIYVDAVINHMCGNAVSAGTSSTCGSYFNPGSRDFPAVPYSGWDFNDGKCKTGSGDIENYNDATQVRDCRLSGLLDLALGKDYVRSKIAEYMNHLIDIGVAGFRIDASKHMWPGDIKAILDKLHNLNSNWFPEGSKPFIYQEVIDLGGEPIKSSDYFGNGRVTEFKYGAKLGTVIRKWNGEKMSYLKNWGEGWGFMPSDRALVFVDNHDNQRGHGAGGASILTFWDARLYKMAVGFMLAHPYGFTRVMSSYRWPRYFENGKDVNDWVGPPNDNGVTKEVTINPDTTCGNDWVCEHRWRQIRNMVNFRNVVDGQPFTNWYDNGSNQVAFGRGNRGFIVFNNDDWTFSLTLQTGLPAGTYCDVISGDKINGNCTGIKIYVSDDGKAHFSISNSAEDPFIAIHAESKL

[13] = biological target: Alpha amylase (Homo sapiens) (UniProt P0DUB6); assay: Binding affinity to alpha-amylase (unknown origin) assessed as quenching constant at a temperature of 283.15 K by fluorescence quenching analysis
[14] = biological target: Alpha amylase (Homo sapiens) (UniProt P0DUB6); assay: Binding affinity to alpha-amylase (unknown origin) assessed as gibb's free energy change ar a temperature of 283.15 K by fluorescence quenching analysis
[15] = biological target: Alpha amylase (Homo sapiens) (UniProt P0DUB6); assay: Binding affinity to alpha-amylase (unknown origin) assessed as decrease in fluorescence intensity of tyrosine residue by Synchronous fluorescence analysis
[16] = biological target: Alpha amylase (Homo sapiens) (UniProt P0DUB6); assay: Binding affinity to alpha-amylase (unknown origin) assessed as Stem-Volmer quenching constant at a temperature of 278.15 K by fluorescence quenching analysis
[17] = biological target: Alpha amylase (Homo sapiens) (UniProt P0DUB6); assay: Binding affinity to alpha-amylase (unknown origin) assessed as change in enthalpy by fluorescence quenching analysis
[18] = biological target: Alpha amylase (Homo sapiens) (UniProt P0DUB6); assay: Binding affinity to alpha-amylase (unknown origin) assessed as increase in absorption intensity by measuring appearance of new peak at 380 nm at 0.001 M by […]
[19] = biological target: Alpha amylase (Homo sapiens) (UniProt P0DUB6); assay: Binding affinity to alpha-amylase (unknown origin) assessed as increase in intensity of absorption peak at 280 nm by […]
[20] = biological target: Alpha amylase (Homo sapiens) (UniProt P0DUB6); assay: Binding affinity to alpha-amylase (unknown origin) assessed as gibb's free energy change ar a temperature of 278.15 K by fluorescence quenching analysis
A549 [21] = assay: Induction of ROS in human A549 cells at sub IC50 concentration incubated for 24 hrs by H2DCFDA dye based fluorescence assay (reference value: 33.28%); type: functional
[22] = biological target: Alpha amylase (Homo sapiens) (UniProt P0DUB6); assay: Binding affinity to alpha-amylase (unknown origin) assessed as equilibrium binding constant at a temperature of 310.15 K by fluorescence quenching analysis
[23] = biological target: Alpha amylase (Homo sapiens) (UniProt P0DUB6); assay: Binding affinity to alpha-amylase (unknown origin) assessed as quenching constant at a temperature of 278.15 K by fluorescence quenching analysis
[24] = biological target: Alpha amylase (Homo sapiens) (UniProt P0DUB6); assay: Binding affinity to alpha-amylase (unknown origin) assessed as Stem-Volmer quenching constant at a temperature of 310.15 K by fluorescence quenching analysis
[25] = biological target: Alpha amylase (Homo sapiens) (UniProt P0DUB6); assay: Binding affinity to alpha-amylase (unknown origin) assessed as gibb's free energy change ar a temperature of 288.15 K by fluorescence quenching analysis

COc1ccc(CNC(=O)Nc2sc3c(c2C#N)CCCC3)c(OC)c1
IC50 (Pancreatic alpha-amylase): 0.59 µM

O=C(N/N=C/c1ccc(O)cc1)c1csc(Nc2ccc([N+](=O)[O-])cc2)n1
Activity (MCF-10A): Non-Toxic
Activity [1]: Dose-Dependent Effect
Kb [2]: 0.102 10^6L/mol
IC50 (A549 [3]): 7.44 µM
Kq [4]: 1.88 10^13L/mol/s
deltaG [5]: -0.507 kcal/mol
KSV [6]: 0.24 10^5L/mol/s
Activity [7]: Active
IC50 (MDA-MB-231): 11.4 µM
Kq [8]: 2.46 10^13L/mol/s
deltaS [9]: -847 J/mol/K
Kb [10]: 6.32 10^6L/mol
Kb [11]: 0.00254 10^6L/mol
KSV [12]: 0.93 10^5L/mol/s
IC50 (HCT-116): 8.33 µM
IC50 (Alpha amylase): 0.23 µM
Kq [13]: 9.36 10^13L/mol/s
deltaG [14]: -6.7 kcal/mol
Activity [15]: Active
KSV [16]: 1.6 10^5L/mol/s
deltaH [17]: -6.4 kcal/mol
Activity [18]: Active
Activity [19]: Dose-Dependent Effect
deltaG [20]: -7.71 kcal/mol
Activity (A549 [21]): 64.21%
Kb [22]: 442000 L/mol
Kq [23]: 16.8 10^13L/mol/s
KSV [24]: 0.188 10^5L/mol/s
deltaG [25]: -5.69 kcal/mol
